Experimental findings from patent US20190359653A1, “SELECTIVE PEPTIDE INHIBITORS OF FRIZZLED” (Genentech, Inc., priority 2016, published 2019) are described below.

In the assay the test system is Wnt3a-mediated β-catenin signaling in HEK293-TB cells. Format: cell-based.

Turning to LPSDDAEFWCHVMY [dFz7-21-L6A], the “reduction in cellular potency” value was around 800 fold.
